# Data taken from publication PMC10317875, “PET imaging of PARP expression using ^68Ga-labelled inhibitors” (European Journal of Nuclear Medicine and Molecular Imaging, 2023).
# How the values were obtained:
# SK-OV-3 and A549 cells = test: Cell uptake of radiotracers in SK-OV-3 and A549 cells; assay type: cell-based; details: 2 h incubation at 37 °C
# Protocol: SK-OV-3 and A549 cells were seeded in 6-well plates (500 × 10^3/well) for 24 h. Then, the cells were incubated separately with the three ^68Ga-labelled radiotracers (740 kBq/1 mL in each well) at 37 °C. To eliminate unbound ^68Ga-labelled radiotracers, the cells were rinsed three times with PBS (0.5 mL) 2 h after incubation. Cell suspensions were produced after adding pancreatin (0.5–0.8 mL). Finally, a γ-counter was used to measure the radioactivity. The radioactivity data are presented as CPM (counts per minute) with time-decay correction. Three replicate experiments were conducted.
# SK-OV-3 models [1] = test: MicroPET/CT imaging of SK-OV-3 models; assay type: in vivo, BALB/c nude mice
# Protocol: (§1) Female BALB/c nude mice (6–8 weeks old) were utilized in all tumor-bearing mouse experiments. Twelve BALB/c nude mice were subcutaneously injected with SK-OV-3 cells (1 × 10^6) into the right armpit. The mice were used for investigation after the tumor diameter reached approximately 0.5–1.1 cm.
# Six SK-OV-3 models were separated into two groups (^68Ga-labelled radiotracers and blocked groups). The ^68Ga-labelled radiotracers (2.96–5.55 MBq in 200 μL of saline) were administered via tail vein injection. Approximately 5 min before PET acquisition, the mice were anaesthetized by inhalation of a mixture of isoflurane and positioned in the scanner. The PET data for each mouse were acquired at 0.5, 1, and 2 h after injection. In the blocking studies, ^68 Ga-DOTA-Olaparib was injected with a 500-fold excess of Olaparib (562.68 μg) in 200 μL of a solution consisting of 75% saline and 25% DMSO (dimethyl sulfoxide). PET acquisition was performed at 1 h postinjection. The target tissue’s radioactivity content was measured, and the tissue-associated activity was expressed as %ID/g.
# [2] = Plasma protein binding (ultrafiltration); assay type: in vitro ADME; details: mouse plasma
# Protocol: To evaluate the plasma protein binding of the ^68Ga-labelled radiotracers, mouse blood from the heart was centrifuged at 4000 g for 5 min. The upper layer of blood was transferred to an EP tube and stored overnight in a refrigerator at 4 °C.
# One hundred microliters of the ^68Ga-labelled radiotracer solution (0.74–1.48 MBq) was incubated with 100 μL of the above plasma. After 0.5, 1, and 2 h of incubation, the mixture was centrifuged at 15000 g for 10 min in a 30 K ultrafiltration tube. The radioactivity of the membrane and eluate was detected with a γ-counter. The radioactivity from the membrane, representing the tracer bound to plasma proteins, was estimated as a proportion of the total radioactivity of the sample. The experiment was repeated in triplicate.
# [3] = Partition coefficient log P (octanol/ultrapure water); assay type: physicochemical; details: ultrapure water/octanol = 1/1
# Protocol: Log P: Generally, approximately 74–185 kBq of the ^68Ga-labelled radiotracer was combined with a solvent mixture (2 mL, ultrapure water/octanol = 1/1). After 5 min of agitation in a vortex mixer, the aqueous and nonaqueous phases were separated by centrifugation at 15000 g. The radioactivity of each sampling layer (100 μL) was measured using a γ-counter. The trial was conducted five times.
# [4] = Pharmacokinetics (blood clearance) in normal mice; assay type: in vivo; details: tail vein injection, blood radioactivity
# Protocol: The pharmacokinetic parameters of the three ^68Ga-labelled radiotracers were evaluated in normal mice. The three ^68Ga-labelled radiotracers were injected into mice via the tail veins at a dose of 1.48–2.96 MBq/mouse in approximately 200 μL. Blood samples were obtained via the tail vein using tared capillary tubes at 1, 3, 5, 10, 15, 30, 60, 120, and 180 min after radiotracer injection. The blood volume drawn was approximately 0.5–0.8 dispense capillary volumes at each time point. Dispense capillary tube was from Shanghai Great Wall Scientific Instruments Store (size: 0.5 × 100; diameter: 0.5 mm; length: 100 mm). The radioactivity was determined with a γ-counter and decay-corrected to the injection time. All samples were weighed. The radioactive CPM (counts per minute) by dividing by the mass of blood in the capillary are presented as %ID/g. Finally, the pharmacokinetic parameters were analysed by GraphPad Prism 9.0.
# [5] = Partition coefficient log D7.4 (octanol/PBS); assay type: physicochemical; details: PBS (pH = 7.4)/octanol = 1/1
# Protocol: Log D7.4: Similarly, approximately 74–185 kBq of the ^68Ga-labelled radiotracer was combined with a solvent mixture (2 mL, PBS (pH = 7.4)/octanol = 1/1). The partition coefficient experiment was repeated, as mentioned previously.
# A549 models = test: Ex vivo biodistribution in A549 models; parameters: species or system mice; details: 1 h
# Protocol: (§2) To further compare and validate the specific uptake of ^68Ga-DOTA-Olaparib in different tumor models, biodistribution experiments were conducted with A549 models (10–12 weeks old, n = 3). ^68Ga-DOTA-Olaparib (1.22–5.59 MBq of ^68Ga-DOTA-Olaparib in 200 μL of saline) was administered via the lateral tail vein. After allowing the medication to circulate for varying amounts of time (0.5, 1, and 2 h), three mice were sacrificed. The tissue radioactivity (tumor, blood, muscle, bone, liver, spleen, kidney, heart, lung, bladder, brain, small intestine, and stomach) was measured using a γ-counter. The organs were weighed, and the γ-counter activity readings were decay-corrected to the injection time. Finally, the associated tissue activity was calculated by GraphPad Prism 9.0, and the data are expressed as %ID/g.
# [6] = Ex vivo biodistribution in normal mice; details: 5-180 min after injection
# Protocol: Normal mice (6–8 weeks old, n = 5) were utilized in the biodistribution experiments. ^68Ga-DOTA-Olaparib (0.74–2.96 MBq of 200 μL of saline) was administered via the lateral tail vein. The medication was allowed to circulate for 5, 15, 30, 60, 120, and 180 min before the mice were sacrificed. The radioactivity in the target tissues (blood, muscle, bone, liver, spleen, kidney, heart, lung, bladder, brain, small intestine, and stomach) was measured using a γ-counter. The organs were weighed, and the γ-counter activity readings were decay-corrected to the injection time. The corresponding tissue activity was then assessed using GraphPad Prism 9.0, and the data are presented as %ID/g using the following formula: [(activity in the target organ/target organ quality)/injected dose] * 100%.
# SK-OV-3 models [7] = test: Ex vivo biodistribution in SK-OV-3 models; parameters: species or system BALB/c nude mice
# Protocol: as §1
# as §2, with “Biodistribution” for “To further compare and validate the specific uptake of ^68Ga-DOTA-Olaparib in different tumor models, biodistribution”, “SK-OV-3” for “A549”, “(1.85–5.55” for “(1.22–5.59”
# To verify specific tumor accumulation, ^68Ga-DOTA-Olaparib was administered with a 500-fold excess of Olaparib (530.94 μg) in 200 μL of a solution containing 75% saline and 25% DMSO via the lateral tail vein. After 1 h, mice (n = 3) were sacrificed to collect the tissues of interest. The associated tissue activity was measured as described above.
# [8] = target: T1, PARP-1 protein (human, Recombinant (His Tag)) (Homo sapiens, UniProt P09874); test: Surface plasmon resonance (SPR) binding assay; details: SPR imaging
# T1 construct: His tag; purchased Sino Biological 11,040-H08B
# Protocol: Furthermore, the compound Olaparib was used as a reference for affinity. The surface plasmon resonance binding assays were conducted according to the previous protocol.
# PARP-1 in SK-OV-3 cells = test: In vitro cell localization, FL-Olaparib confocal fluorescence with competition; details: FL-Olaparib 250 nM, presaturation with 1000-fold molar excess of competitor
tumor uptake (PET/CT) (SK-OV-3 models [1]; 0.5 h after injection) [%ID/g],tumor uptake (PET/CT) (SK-OV-3 models [1]; 1 h after injection) [%ID/g],tumor uptake (PET/CT) (SK-OV-3 models [1]; 2 h after injection) [%ID/g],plasma protein binding ([2]; 0.5 h) [%],plasma protein binding ([2]; 1 h) [%],plasma protein binding ([2]; 2 h) [%],log Poctanol/water [3],clear-phase half-life (t1/2β) [4] [min],distribution-phase half-life (t1/2α) [4] [min],log Doctanol/PBS [5],Structure (SMILES),SK-OV-3/A549 uptake ratio (SK-OV-3 and A549 cells),also measured
0.96 ± 0.13,0.57 ± 0.068,0.91 ± 0.11,39.32 ± 1.89,43.08 ± 7.20,43.56 ± 5.24,-1.62 ± 0.075,23.19,0.40,-1.75 ± 0.11,O=C([O-])CN1CCN(CC(=O)O)CCN(CC(=O)[O-])CCN(CC(=O)NCC(=O)NCC(=O)NCC(=O)N2CCN(C(=O)c3cc(Cc4n[nH]c(=O)c5ccccc45)ccc3F)CC2)CC1.[68Ga+3] [68Ga-DOTA-(Gly)3-Olaparib],1.63 ± 0.13,
0.96 ± 0.14,0.56 ± 0.12,0.98 ± 0.53,59.62 ± 2.40,83.84 ± 1.42,58.13 ± 6.63,-2.16 ± 0.12,47.69,0.31,-2.49 ± 0.15,O=C([O-])CN1CCN(CC(=O)O)CCN(CC(=O)[O-])CCN(CC(=O)NCCCC(=O)N2CCN(C(=O)c3cc(Cc4n[nH]c(=O)c5ccccc45)ccc3F)CC2)CC1.[68Ga+3] [68Ga-DOTA-GABA-Olaparib],2.43 ± 0.45,
,~2.37 ± 0.37,~2.27 ± 0.32,20.59 ± 1.23,32.85 ± 4.11,24.04 ± 0.80,-2.33 ± 0.028,22.82,1.97,-2.56 ± 0.026,O=C([O-])CN1CCN(CC(=O)O)CCN(CC(=O)[O-])CCN(CC(=O)N2CCN(C(=O)c3cc(Cc4n[nH]c(=O)c5ccccc45)ccc3F)CC2)CC1.[68Ga+3] [68Ga-DOTA-Olaparib],1.47 ± 0.019,"T/M (tumor-to-muscle) ratio (PET/CT) (SK-OV-3 models [1]; 0.5 h): approximately 3.54 ± 0.74; T/M (tumor-to-muscle) ratio (PET/CT), blocked (SK-OV-3 models [1]; 1 h, blocked with a 500-fold excess of Olaparib): 1.79 ± 0.26; T/M (tumor-to-muscle) ratio (PET/CT) (SK-OV-3 models [1]; 1 h, unblocked): ~4.07 ± 0.59; T/M (tumor-to-muscle) ratio (PET/CT) (SK-OV-3 models [1]; 2 h): ~7.31 ± 0.51; tumor uptake (ex vivo biodistribution) (A549 models): 0.43 ± 0.10 %ID/g; order of clearance from the body [6]: kidney-bladder-urine; tumor/intestine ratio (SK-OV-3 models [7]; 1 h after administration): 2.05 ± 0.072; tumor/stomach ratio (SK-OV-3 models [7]; 1 h after administration): 2.97 ± 0.73; T/M ratio (ex vivo biodistribution) (SK-OV-3 models [7]; 2 h): 12.64 ± 1.32; tumor-to-bone ratio (ex vivo biodistribution) (SK-OV-3 models [7]; 2 h): 3.85 ± 0.68; tumor-to-brain ratio (ex vivo biodistribution) (SK-OV-3 models [7]; 2 h): 15.63 ± 1.58; bladder accumulation (SK-OV-3 models [7]; SK-OV-3 models, 0.5 h): 5.80 ± 1.47 %ID/g; kidneys accumulation (SK-OV-3 models [7]; SK-OV-3 models, 0.5 h): 3.11 ± 0.29 %ID/g; bladder accumulation (SK-OV-3 models [7]; SK-OV-3 models, 1 h): 2.57 ± 0.72 %ID/g; kidneys accumulation (SK-OV-3 models [7]; SK-OV-3 models, 1 h): 4.24 ± 0.22 %ID/g; tumor radioactivity (ex vivo biodistribution), blocked (SK-OV-3 models [7]; SK-OV-3 models, 1 h, 500-fold excess of Olaparib): 0.25 ± 0.027 %ID/g; tumor radioactivity (ex vivo biodistribution) (SK-OV-3 models [7]; SK-OV-3 models, 1 h postinjection): 1.26 ± 0.17 %ID/g; bladder accumulation (SK-OV-3 models [7]; SK-OV-3 models, 2 h): 0.064 ± 0.025 %ID/g; kidneys accumulation (SK-OV-3 models [7]; SK-OV-3 models, 2 h): 2.51 ± 0.33 %ID/g"
,,,,,,,,,,O=C(O)CN1CCN(CC(=O)O)CCN(CC(=O)N2CCN(C(=O)c3cc(Cc4n[nH]c(=O)c5ccccc45)ccc3F)CC2)CCN(CC(=O)O)CC1 [DOTA-Olaparib],,Kd [8]: 14.5 nM; effect on FL-Olaparib fluorescence signals (PARP-1 in SK-OV-3 cells): substantial reduction in fluorescence signals
